According to paper PMC11249953, “c-KIT inhibitors reduce pathology and improve behavior in the Tg(SwDI) model of Alzheimer’s disease” (Life Science Alliance, 2024):
Where two headings read alike, the source gives them in different places.

Columns and labels:
A53T mice = test: Novel object recognition, A53T mice; format: in vivo, mouse; settings: 5 mg/kg
Description: Novel object recognition was carried out using a 50 × 50 cm arena with clear walls covered by brown construction paper. Mice were habituated to the room for 30 min each day, before being allowed to freely explore the arena for 5 min two times, for 3 d. On the 4th d, two identical objects were placed in the arena in opposite adjacent corners, 10 cm from the corner of the arena. Mice were placed along the wall opposite from the objects and allowed to freely explore for 10 min. Approach behavior (extending nose toward the object) toward both objects was recorded manually using handheld stop watches and compared with ensure there was no preference for either neutral object. For the probe trial, one object was removed and replaced with a novel object, and mice were again allowed to freely explore for 10 min, with approach time towards the novel and familiar objects recorded. Trials in which the mice explored for less than 1 s were excluded. Discrimination index was calculated by dividing time spent exploring the novel object by total time exploring both objects and was compared for treated versus control animals.

ULK3 = target: T1, ULK3 (Homo sapiens, UniProt Q6PHR2); test: KINOMEscan competition binding, ULK3; settings: 10 µM compound; for remaining binding at 10 µM: lower = stronger binding, read-out: ULK3 %Ctrl @ 10000nM (POC)
T1 construct: DNA label for qPCR read-out (T7 phage fusion or DNA tag); purchased Eurofins DiscoverX Corporation; host or cells: T7 phage in E. coli (BL21-derived) or HEK-293
T1 sequence (Q6PHR2 1-472): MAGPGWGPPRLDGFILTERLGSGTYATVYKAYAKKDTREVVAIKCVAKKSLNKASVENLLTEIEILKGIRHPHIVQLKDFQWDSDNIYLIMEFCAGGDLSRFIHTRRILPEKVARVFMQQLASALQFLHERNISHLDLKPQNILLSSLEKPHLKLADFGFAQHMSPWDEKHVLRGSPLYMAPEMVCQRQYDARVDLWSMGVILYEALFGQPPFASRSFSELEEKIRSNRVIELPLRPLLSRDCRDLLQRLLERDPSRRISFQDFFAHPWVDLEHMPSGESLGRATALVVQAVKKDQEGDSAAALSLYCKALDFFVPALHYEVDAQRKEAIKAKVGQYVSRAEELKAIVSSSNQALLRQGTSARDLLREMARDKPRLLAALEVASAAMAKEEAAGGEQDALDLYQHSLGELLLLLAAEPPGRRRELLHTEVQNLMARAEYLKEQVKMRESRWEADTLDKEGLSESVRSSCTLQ
Description: The KINOMEscan screening platform (Eurofins DiscoverX Corporation) was performed using active site-directed competition binding assay to quantitatively measure interactions between BK40143 and BK40197 and more than 450 human kinases and disease relevant mutant variants. […] Screening “hits” are identified by measuring the amount of kinase captured in test (BK40143 and BK40197) versus control samples by using a quantitative and ultra-sensitive qRT-PCR method that detects the associated DNA label. BK40143 and BK40197 were screened at 10 µM concentration, and results for primary screen binding interactions were reported as “% Ctrl” (POC), where lower numbers indicate stronger hits and calculated as follows: [test compound signal−positive control signal/negative control signal−positive control signal]×100
negative control = DMSO (100% Ctrl)
positive control = control compound (0% Ctrl)
Based on screening data from of profiled compounds, a proportional relationship between primary screening results and corresponding compound/target affinities can be described as binding constants (Kd values) for the indicated ranges of POC values with tighter binding (higher affinity) interactions associated with lower POC values and weaker binding (lower affinity) associated with higher POC values. Briefly, kinase-tagged T7 phage strains were grown in parallel in 24-well blocks in an E. coli host derived from the BL21 strain. E. coli were grown to log-phase and infected with T7 phage from a frozen stock (multiplicity of infection = 0.4) and incubated with shaking at 32°C until lysis (90–150 min). The lysates were centrifuged (6,000g) and filtered (0.2 μm) to remove cell debris. The remaining kinases were produced in HEK-293 cells and subsequently tagged with DNA for qRT-PCR detection. Streptavidin-coated magnetic beads were treated with biotinylated small molecule ligands for 30 min at RT to generate affinity resins for kinase assays. The liganded beads were blocked with excess biotin and washed with blocking buffer (1% BSA, 0.05% Tween 20, 1 mM DTT; SeaBlock [Pierce]) to remove unbound ligand and to reduce non-specific phage binding. Binding reactions were assembled by combining kinases, liganded affinity beads, and test compounds in 1x binding buffer (20% 0.17x PBS, 0.05% Tween 20, 6 mM DTT; SeaBlock). Test compounds were prepared as 100x stocks in 100% DMSO and directly diluted into the assay. All reactions were performed in polypropylene 384-well plates in a final volume of 0.02 ml. The assay plates were incubated at RT with shaking for 1 h and the affinity beads were washed with wash buffer (1x PBS, 0.05% Tween 20). […] The kinase concentration in the eluates was measured by qRT-PCR.

TgAPP mice = test: Elevated plus maze, TgAPP mice; format: in vivo, mouse; settings: 45 mg/kg IP, 6 wk, vs DMSO
Description: The elevated plus maze was performed using a standard set up, with two enclosed arms and two open arms. Mice were placed at the intersection of the open and closed arms and allowed to freely explore for 5 min, two times. Time spent in the open and closed arms and number of entries into the open and closed arms were recorded.

[1] = Pharmacokinetic analysis of BK40197 (brain and serum, LC-MS/MS); format: in vivo, C57BL/6 mice; settings: for Kp / Tmax / AUC / Cmax: both sexes, C57BL/6, mouse; for Kp: brain/serum, intraperitoneal, read-out: brain to serum ratio
Description: The PK profile of BK40197 was investigated after single IP doses of 20 and 45 mg/kg BK40197 to male and female 5–6 mo old C57BL/6 mice compared with DMSO. A solution at 5 ng/ml isotope labelled reference compounds d8-BK40197 was prepared. The solvent used for internal standard (ISTD) dilution is (200 ml/50 ml) acetonitrile/ethyl acetate (ACN/EtOAc). Brain tissue was homogenized in ice water bath and was prepared using weight accurately on analytical balance with 4 decimals. A volume water (MilliQ) was added by adjustable 100–1,000 μl to a concentration at 100 mg brain tissue/ml water. Brain homogenate (25 μl) and plasma sample (25 μl) that was thawed to RT and gently mixed were pipetted to eppendorf tube with lid and 75 μl ISTD added, mixed on vortex and centrifuged for 5 min at […]. A volume of 25 μl milli-Q water and 75 μl brain or plasma samples were added into a 200 μl PE vial and mixed on vortex and 10 μl and injected on LC-MS/MS. All animal work was approved by GUACUC.

Solubility in DMSO = format: physicochemical

Compound | novel object recognition (A53T mice) | inhibition at 10 µM (ULK3) [%] | remaining binding at 10 µM (ULK3) [%] | elevated plus maze: time in the open arms (TgAPP mice) | Kp ([1]; 20 mg/kg IP) | Kp ([1]; 45 mg/kg IP) | Tmax ([1]; brain, 20 mg/kg single IP, read-out: Brain Tmax) [h] | Tmax ([1]; brain, 45 mg/kg single IP, read-out: Brain Tmax) [h] | AUC ([1]; serum, 20 mg/kg single IP) [ng·h/mL] | Cmax ([1]; serum, 20 mg/kg single IP) [ng/g] | Tmax ([1]; serum, 20 mg/kg single IP, read-out: Serum Tmax) [h] | AUC ([1]; serum, 45 mg/kg single IP) [ng·h/mL] | Cmax ([1]; serum, 45 mg/kg single IP) [ng/g] | Tmax ([1]; serum, 45 mg/kg single IP, read-out: Serum Tmax) [h] | brain penetrance ([1]; single IP dose, C57BL/6 mice) | solubility in DMSO (Solubility in DMSO)
Cc1cccc(-c2cc3nccc(Nc4ccccc4)c3s2)c1 [BK40143] | significant improvements on novel object recognition | 90.2 | 9.8 |  |  |  |  |  |  |  |  |  |  |  |  | 
Cc1cccc(-c2cc3nccc(N4CCOCC4)c3s2)c1 [BK40197] |  | 93.9 | 6.1 | spent significantly greater time in the open arms of the elevated plus maze | 0.251 | 0.201 | 2 | 2 | 928 | 543 ± 82.3 | 1 | 1940 | 1100 ± 165 | 1 | brain penetrant | insolubility
